Assays:
[1] = Chloride ion concentration of aqueous solutions by ion chromatography; type: physicochemical; settings: detection limit 0.1 ppm; each sample
Method: When chloride ion concentration in the aqueous 5-aminolevulinic acid phosphate solutions used in the above-described examples was measured by ion chromatography under the following conditions, it was equal to or lower than the detection limit (0.1 ppm) in each sample.
(§1) The measuring conditions are as follows; A: separation column (IonPac AS12A manufactured by Japan Dionex), B: guard column (IonPac AG12A manufactured by Japan Dionex), C: eluting solution (an aqueous solution containing Na2CO3: 3.0 mmol/l and NaHCO3: 0.5 mmol/l), D: flow rate (1.5 ml/min), E: suppressor (ASRS (recycle mode, current value 50 mA)), F: amount of introduced sample (25 μl), G: temperature of constant temperature oven (35° C.) and H: detector (electric conductivity detector).
When chloride ion concentration in the aqueous 5-aminolevulinic acid nitrate solutions used in the above-described examples was measured by ion chromatography under the following conditions, it was equal to or lower than the detection limit (0.1 ppm) in each sample.
as §1, with “follows:” for “follows;”, “consisting of” for “containing”
When chloride ion concentration in the aqueous 5-aminolevulinic acid p-toluenesulfonate solutions used in the above-described examples was measured by ion chromatography under the following conditions, it was equal to or lower than the detection limit (0.1 ppm) in each sample.

[2] = test system: apple variety “Fuji”; test: Coloring test of apple; type: in vivo; settings: for Coloring of red compared with 5-aminolevulinic acid hydrochloride: in vivo
Method: The 5-aminolevulinic acid phosphate obtained in Example 1 was dissolved in ion exchange water to the predetermined concentration shown in the following table. A spreader (“Approach BI” manufactured by Maruwa Biochemical) was added to the liquid to a concentration of 0.1% by weight. The pH was adjusted using phosphoric acid.
An aqueous 5-aminolevulinic acid hydrochloride solution was prepared in the same manner, except that the above-described 5-aminolevulinic acid phosphate was changed to 5-aminolevulinic acid hydrochloride and the phosphoric acid for pH adjustment was changed to hydrochloric acid.
The thus prepared liquid was sprayed at a ratio of 2 liters per branch on three main branches where young fruits of an apple variety “Fuji” bored but not yet colored into red (September 15). About 2 months thereafter (November 6), the apples were harvested and their coloring degree was examined. A color meter CR-200 manufactured by MINOLTA CAMERA was used for the measurement of color.
The 5-aminolevulinic acid nitrate obtained in Example 16 was dissolved in ion exchange water to the predetermined concentration shown in Table 16. A spreader (“Approach BI” manufactured by Maruwa Biochemical) was added to the liquid to a concentration of 0.1% by weight. The pH was adjusted using nitric acid.
A solution was prepared in the same manner, except that the above-described 5-aminolevulinic acid nitrate was changed to 5-aminolevulinic acid hydrochloride and the nitric acid was changed to hydrochloric acid.
The 5-aminolevulinic acid p-toluenesulfonate obtained in Example 23 was dissolved in ion exchange water to the predetermined concentration shown in Table 24. A spreader (“Approach B1” manufactured by Maruwa Biochemical) was added to the liquid to a concentration of 0.1% by weight. The pH was adjusted using p-toluenesulfonic acid.
A solution was prepared in the same manner, except that the above-described 5-aminolevulinic acid p-toluenesulfonate was changed to 5-aminolevulinic acid hydrochloride and the p-toluenesulfonic acid was changed to hydrochloric acid.

[3] = test system: radish; test: Plant activating effect, foliar application, radish; type: in vivo; settings: 21 days, 12 seeds
Method: After 600 g of upland soil was packed in a porcelain pot of 12 cm in inner diameter, 12 grains of radish seeds were sowed therein, covered with 5 mm in depth of the soil and allowed to grow in a green house. Foliar application treatment was carried out once a day using the following application liquids. Conditions of the leaves 21 days thereafter were observed.

[4] = test system: Chlorella sp.; test: Culturing of plankton; type: cell-based; settings: for amount of cells: OD 660 nm: 1 mM additive
Method: (§2) 5-Aminolevulinic acid nitrate was added, to a concentration of 1 mM (194 ppm), to 100 ml of a sterilized culture shown in Table 17 (components of the culture), and a Chlorella sp. was inoculated therein and cultured on a reciprocal shaker at 30° C. under aerobic and dark conditions to measure the amount of cells (OD 660).
as §2, with “acid hydrochloride” for “acid nitrate”, “mM (168” for “mM (194”, “of the” for “of a”, “and the” for “and a”
The Chlorella sp. was inoculated into 100 ml of the sterilized culture shown in Table 17 (components of the culture) and cultured on a reciprocal shaker at 30° C. under aerobic and dark conditions to measure the amount of cells (OD 660).

[5] = Test on the generation of silver chloride precipitation with silver nitrate; type: physicochemical; settings: 0.5 g with 0.5 g of silver nitrate in 10 ml of ion exchange water, 5 minutes
Method: In 10 ml of ion exchange water, 0.5 g of 5-aminolevulinic acid phosphate and 0.5 g of silver nitrate were dissolved, the mixture was allowed to stand still for 5 minutes, and conditions of the liquid was observed. […] In this connection, 0.5 g of 5-aminolevulinic acid hydrochloride and 0.5 g of silver nitrate were dissolved in 10 ml of ion exchange water and allowed to stand still for 5 minutes, and conditions of the liquid was observed.
In 10 ml of ion exchange water, 0.5 g of 5-aminolevulinic acid nitrate and 0.5 g of silver nitrate were dissolved, the mixture was allowed to stand still for 5 minutes, and conditions of the liquid was observed.
In this connection, 0.5 g of 5-aminolevulinic acid hydrochloride and 0.5 g of silver nitrate were dissolved in 10 ml of ion exchange water and allowed to stand still for 5 minutes, and conditions of the liquid was observed.
In 10 ml of ion exchange water, 0.5 g of 5-aminolevulinic acid p-toluenesulfonate and 0.5 g of silver nitrate were dissolved, the mixture was allowed to stand still for 5 minutes, and conditions of the liquid was observed.

[6] = Degradation test by sterilization; type: physicochemical
Method: Firstly, 50 mg of 5-aminolevulinic acid p-toluenesulfonate or 5-aminolevulinic acid hydrochloride was heat sterilized (121° C., 20 minutes, 1.5 kgf/cm^2). After confirming that there is no change in weight before and after the sterilization, degree of degradation of 5-aminolevulinic acid before and after the sterilization was verified by the method described in a reference (Clin. Chem., 36/8, 1494 (1990)).

| SMILES | chloride ion concentration in the aqueous solutions used in the examples [1] | Coloring, L ([2]; 100 ppm (pH 5.0)) | Coloring, a ([2]; 100 ppm (pH 5.0)) | Coloring, b ([2]; 100 ppm (pH 5.0)) | Coloring, L ([2]; 200 ppm (pH 4.9)) | Coloring, a ([2]; 200 ppm (pH 4.9)) | Coloring, b ([2]; 200 ppm (pH 4.9)) | Coloring of red compared with 5-aminolevulinic acid hydrochloride [2] | plants judged 0: Abnormality was not found on the leaf surface ([3]; 1 ppm in tap water) | plants judged 1: A region discolored to yellow was found on the leaf surface ([3]; 1 ppm in tap water) | plants judged 2: A necrotic region was found on the leaf surface ([3]; 1 ppm in tap water) | plants judged 0: Abnormality was not found on the leaf surface ([3]; 10 ppm in tap water) | plants judged 1: A region discolored to yellow was found on the leaf surface ([3]; 10 ppm in tap water) | plants judged 2: A necrotic region was found on the leaf surface ([3]; 10 ppm in tap water) | plants judged 0: Abnormality was not found on the leaf surface ([3]; 100 ppm in tap water) | plants judged 1: A region discolored to yellow was found on the leaf surface ([3]; 100 ppm in tap water) | plants judged 2: A necrotic region was found on the leaf surface ([3]; 100 ppm in tap water) | generation of precipitate [5] | further results |
| --- | --- | --- | --- | --- | --- | --- | --- | --- | --- | --- | --- | --- | --- | --- | --- | --- | --- | --- | --- |
| NCC(=O)CCC(=O)O.O=[N+]([O-])O [5-aminolevulinic acid nitrate, 5-aminolevulinic Acid Nitrate] | ≤ 0.1 ppm | 42.41 | 26.51 | 14.46 | 42.47 | 31.00 | 14.72 | Coloring of red was denser | 5 plants | 5 plants | 2 plants | 6 plants | 5 plants | 1 plant^ plants | 4 plants | 6 plants | 2 plants | Generation of the precipitate was not found | effect on Chlorella culture compared with hydrochloride [4]: showed the same effect of 5-aminolevulinic acid hydrochloride; amount of cells: OD 660 nm ([4]; Culture time 0 day): 1.8; amount of cells: OD 660 nm ([4]; Culture time 1 day): 6.5; amount of cells: OD 660 nm ([4]; Culture time 2 day): 12.6; amount of cells: OD 660 nm ([4]; Culture time 3 day): 15.0 |
| Cc1ccc(S(=O)(=O)O)cc1.NCC(=O)CCC(=O)O [5-aminolevulinic acid p-toluenesulfonate, 5-aminolevulinic Acid p-toluenesulfonate] | ≤ 0.1 ppm | 42.39 | 26.44 | 14.69 | 42.36 | 30.93 | 14.34 | Coloring of red was denser | 6 plants | 3 plants | 3 plants | 5 plants | 5 plants | 2 plants | 7 plants | 4 plants | 1 plant^ plants | Generation of the precipitate was not found | degradability by high temperature heat sterilization compared with hydrochloride [6]: lower degradability; Degradation degree (%) ([6]; 50 mg heat sterilized, 121° C., 20 minutes, 1.5 kgf/cm^2): 2.7% |
